Reference: patent US20200368312A1 (priority 2017, published 2020)
Like-named read-outs stand apart in the source and are kept apart here.

Assays:
Clostridium difficile = experiment: Broth microdilution MIC, C. difficile, anaerobic, supplemented Brucella Broth (Example 11, Table 7); assay type: cell-based
Enterococci = assay type: cell-based
S. epidermidis (CoNS) = experiment: Broth microdilution MIC, S. epidermidis (CoNS) (Table 7); assay type: cell-based
P. micros = experiment: Broth microdilution MIC, P. micros (Table 7); assay type: cell-based; conditions: P. micros MMX 3546
Streptococci = experiment: Broth microdilution MIC, Streptococci (Example 11, Table 7); assay type: cell-based
P. acnes = experiment: Broth microdilution MIC, P. acnes (Table 7); assay type: cell-based
E. lenta = experiment: Broth microdilution MIC, E. lenta (Table 7); assay type: cell-based; conditions: E. lenta MMX 1287 ATCC 43055
S. haemolyticus (CoNS) = experiment: Broth microdilution MIC, S. haemolyticus (CoNS) (Table 7); assay type: cell-based; conditions: S. haemolyticus (CoNS) MMX 529 ATCC 29970
Staphylococcus aureus = experiment: microbe, parasite or virus in culture; assay type: cell-based
S. lugdenensis (CoNS) = experiment: Broth microdilution MIC, S. lugdenensis (CoNS) (Table 7); assay type: cell-based; conditions: S. lugdenensis (CoNS) MMX 8724
[1] = Un-inoculated solubility control plates, drug precipitation in test media; assay type: physicochemical; conditions: top concentration tested (64 μg/mL) in MHBII with blood and supplemented Brucella broth
P. anaerobius = experiment: Broth microdilution MIC, P. anaerobius (Table 7); assay type: cell-based; conditions: P. anaerobius MMX 1208 ATCC 27337
C. perfringens = assay type: cell-based; conditions: C. perfringens MMX 8351 ATCC 13124
S. hominis (CoNS) = experiment: Broth microdilution MIC, S. hominis (CoNS) (Table 7); assay type: cell-based; conditions: S. hominis (CoNS) MMX 667 ATCC 27844

CCCCCCCCCCNC1(C)CC(OC2C(Oc3c4cc5cc3Oc3ccc(cc3Cl)C(O)C3NC(=O)C(NC(=O)C5NC(=O)C(CC(N)=O)NC(=O)C(NC(=O)C(CC(C)C)NC)C(O)c5ccc(c(Cl)c5)O4)c4ccc(O)c(c4)-c4c(O)cc(O)cc4C(C(=O)O)NC3=O)OC(CO)C(O)C2O)OC(C)C1O (stereo not shown) [Compound 5, N-decyl vancomycin]
0.015 mg/L: MIC (Streptococci; S. agalactiae MMX 4088) | MIC (Streptococci; S. agalactiae MMX 4115, erm^R) | MIC (Streptococci; S. dysgalactiae MMX 5121) | MIC (Streptococci; S. dysgalactiae MMX 5124) | MIC (Streptococci; S. mitis (MGS) MMX 5798) | MIC (Streptococci; S. pneumoniae MMX 1195 ATCC 49619, PISP) | MIC (Streptococci; S. pyogenes MMX 946, ermR)
0.5 mg/L: MIC (Clostridium difficile; C. difficile MMX 5668 ATCC BAA-1870, NAP1/027) | MIC (Staphylococcus aureus; S. aureus MMX 1723, Mu50, VISA) | MIC (Staphylococcus aureus; S. aureus MMX 4658, VISA) | MIC (Staphylococcus aureus; S. aureus MMX 4665, hVISA)
9 ×: RV40 activity as compared to Comparator (Staphylococcus aureus; MRSA strains (Table 5), […])
0.03 mg/L: MIC (Streptococci; S. agalactiae MMX 427 ATCC 13813) | MIC (Streptococci; S. anginosus (AGS) MMX 1201 ATCC 33397) | MIC (Streptococci; S. constellatus (AGS) MMX 5677) | MIC (Streptococci; S. dysgalactiae MMX 5123) | MIC (Streptococci; S. mitis (MGS) MMX 1205 ATCC 49456) | MIC (Streptococci; S. oralis (MGS) MMX 5821) | MIC (S. lugdenensis (CoNS)) | MIC (P. anaerobius)
0.12 mg/L: MIC (Enterococci; E. faecium MMX 173, VanB VRE) | MIC (S. epidermidis (CoNS); S. epidermidis (CoNS) MMX 762, MRSE) | MIC (P. micros) | MIC (E. lenta) | MIC (Staphylococcus aureus; S. aureus MMX 2011 ATCC BAA-1756, MRSA) | MIC (Staphylococcus aureus; S. aureus MMX 4660, VISA) | MIC (Staphylococcus aureus; S. aureus MMX 7900, MRSA) | MIC (Staphylococcus aureus; S. aureus MMX 7908, MSSA)
Some precipitation: drug precipitation [1]
0.06 mg/L: MIC (Clostridium difficile; C. difficile MMX 4381 ATCC 700057, toxinAB-negative) | MIC (Clostridium difficile; C. difficile MMX 4994 ATCC BAA-1805, ribotype 027) | MIC (Enterococci) | MIC (Enterococci; E. faecalis MMX 1086, VanA VRE) | MIC (S. epidermidis (CoNS); S. epidermidis (CoNS) MMX 5145, MRSE) | MIC (P. acnes; P. acnes MMX 7942 ATCC 6919) | MIC (P. acnes; P. acnes MMX 7946 ATCC 11827) | MIC (S. haemolyticus (CoNS)) | MIC (Staphylococcus aureus; S. aureus MMX 100 ATCC 29213, MSSA (quality control)) | MIC (Staphylococcus aureus; S. aureus MMX 2010, MRSA) | MIC (Staphylococcus aureus; S. aureus MMX 2490, MSSA) | MIC (Staphylococcus aureus; S. aureus MMX 3982, MRSA) | MIC (Staphylococcus aureus; S. aureus MMX 4675 ATCC BAA-1556, MRSA) | MIC (Staphylococcus aureus; S. aureus MMX 5717 ATCC 33591, MRSA) | MIC (Staphylococcus aureus; S. aureus MMX 5985, MRSA) | MIC (Staphylococcus aureus; S. aureus MMX 5989, Mu3, hVISA) | MIC (Staphylococcus aureus; S. aureus MMX 5999, MRSA) | MIC (Staphylococcus aureus; S. aureus MMX 7899, MRSA) | MIC (Staphylococcus aureus; S. aureus MMX 7901, MRSA) | MIC (Staphylococcus aureus; S. aureus MMX 7903, MRSA) | MIC (Staphylococcus aureus; S. aureus MMX 7907, MSSA) | MIC (C. perfringens) | MIC (S. hominis (CoNS))
2 mg/L: MIC (Enterococci; E. faecium MMX 851, VanA VRE)
0.25 mg/L: MIC (Staphylococcus aureus; S. aureus MMX 2124, VISA, DaptoNS) | MIC (Staphylococcus aureus; S. aureus MMX 7902, MRSA)
